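Where inhibition never reached the appropriate level, the endpoint shown equals the highest concentration tested. Otherwise, values were interpolated linearly from a five-concentration, 48-hour dose response in 96-well plates. GI50 marks 50% less growth.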 Calls of active or inactive are those of the source. Rule as the data show it: active = GI50 up to about 1.1 µM and inactive = higher. Non-standard residues stand in square brackets, D forms with d. Residues, ends and D or L forms follow the SMILES beside them. *: point of attachment. NMeF = CN[CH](Cc1ccccc1)C(=O)O; NMeV = CN[CH](C(=O)O)C(C)C; Boc = CC(C)(C)OC(=O)*
Assays:
Experiment in all cases: DTP human tumour cell line panel, 48 h
[1] = test system: UO-31
[2] = test system: MOLT-4
[3] = test system: K562
[4] = test system: RXF 393
[5] = test system: OVCAR-5
[6] = test system: SR
[7] = test system: NCI-H226
[8] = test system: KM12
[9] = test system: SN12C
[10] = test system: HT-29
[11] = test system: SF-539
[12] = test system: SK-MEL-2
[13] = test system: SK-OV-3
[14] = test system: EKVX
[15] = test system: A498
[16] = test system: HOP-62
[17] = test system: LOX IMVI
[18] = test system: HOP-92

Measured: GI50

CCOC(=O)c1ccc(N2C(=O)Cc3ccccc3C2=O)cc1
inactive: [1] > 100 µM | [2] > 100 µM | [3] > 100 µM | [4] > 100 µM | [5] > 100 µM | [6] > 100 µM | [7] > 100 µM | [8] > 100 µM | [9] > 100 µM | [10] > 100 µM | [11] > 100 µM | [12] > 100 µM | [13] > 100 µM | [14] > 100 µM

CN(C)c1ccc(/C=C/C=C\c2cc(/C=C/C=C/c3ccc(N(C)C)cc3)[s+]c3ccccc23)cc1.[O-][Cl+3]([O-])([O-])[O-]
inactive: [1] > 100 µM | [2] > 100 µM | [3] > 100 µM | [4] 13.1 µM | [5] > 100 µM | [7] > 100 µM | [8] > 100 µM | [9] > 100 µM | [15] > 100 µM | [16] > 100 µM | [10] > 100 µM | [17] 20.1 µM | [11] > 100 µM | [12] 45.2 µM | [13] 43.7 µM | [14] > 100 µM

[N-]=[N+]=Nc1cc(=O)oc2ccccc12
inactive: [1] > 100 µM | [2] > 100 µM | [3] > 100 µM | [4] > 100 µM | [5] > 100 µM | [6] 48.9 µM | [7] > 100 µM | [8] > 100 µM | [9] > 100 µM | [16] > 100 µM | [10] > 100 µM | [17] > 100 µM | [11] > 100 µM | [12] > 100 µM | [13] > 100 µM

CC12CCC3=C(CSC4=C3CSc3ccccc34)C1=CCCC2=O (centres undefined)
inactive: [1] 70.1 µM | [2] 16.8 µM | [3] 40.8 µM | [4] 40.2 µM | [5] 37.8 µM | [6] 65.8 µM | [7] 64.3 µM | [8] 54.2 µM | [9] > 100 µM | [16] 20.4 µM | [10] 34.1 µM | [17] 69.8 µM | [11] 75.7 µM | [12] 64.3 µM | [14] 42.5 µM

O=C(O)c1ccc(NC(=O)C2C(=O)C(=O)N(c3ccc(C(=O)O)cc3)C2=O)cc1 (centres undefined)
inactive: [1] > 100 µM | [2] > 100 µM | [3] > 100 µM | [4] > 100 µM | [5] > 100 µM | [7] > 100 µM | [8] > 100 µM | [9] > 100 µM | [15] > 100 µM | [16] > 100 µM | [10] > 100 µM | [17] > 100 µM | [11] > 100 µM | [18] > 100 µM | [12] > 100 µM | [13] > 100 µM | [14] > 100 µM

O=C1C2=C(CCC2)Nc2cccc3ncn1c23
inactive: [1] > 100 µM | [2] > 100 µM | [3] > 100 µM | [4] 96.4 µM | [5] 15.9 µM | [6] > 100 µM | [8] 28.8 µM | [9] 55.1 µM | [17] 24.5 µM | [11] > 100 µM | [12] 56.5 µM | [13] 73.5 µM | [14] > 100 µM

O=C1c2ccccc2C(=O)c2[nH]c(Cc3ccccc3F)nc21
inactive: [1] 52.5 µM | [2] 89.7 µM | [3] > 100 µM | [4] 20.2 µM | [6] 68.2 µM | [7] 48.2 µM | [8] 38.9 µM | [9] > 100 µM | [16] 86.7 µM | [10] 32.1 µM | [11] 31.2 µM | [18] 68.1 µM | [12] 60.1 µM | [14] > 100 µM

COc1ccc2ccccc2c1C1=NC(C)(C)CO1
inactive: [1] > 100 µM | [2] > 100 µM | [3] > 100 µM | [4] > 100 µM | [6] > 100 µM | [7] > 100 µM | [8] > 100 µM | [9] > 100 µM | [16] > 100 µM | [10] > 100 µM | [11] > 100 µM | [18] 98.9 µM | [12] > 100 µM | [13] > 100 µM | [14] > 100 µM

Cc1ccc(-c2nc3ccccc3c(=O)n2NC2OC(CO)C(O)C(O)C2O)cc1 (centres undefined)
inactive: [1] > 100 µM | [2] > 100 µM | [3] > 100 µM | [5] > 100 µM | [7] > 100 µM | [8] > 100 µM | [9] > 100 µM | [15] > 100 µM | [16] > 100 µM | [10] > 100 µM | [11] > 100 µM | [18] > 100 µM | [12] > 100 µM | [13] > 100 µM | [14] > 100 µM

COC(=O)C1CCc2c(OC)ccc(OC)c2C1=O (centres undefined)
inactive: [1] > 100 µM | [2] > 100 µM | [3] > 100 µM | [5] > 100 µM | [8] > 100 µM | [15] > 100 µM | [16] > 100 µM | [10] > 100 µM | [17] > 100 µM | [11] > 100 µM | [18] > 100 µM | [12] > 100 µM | [13] > 100 µM | [14] > 100 µM

NC(CCC(=O)NC(CSSCCCCS(=O)O)C(=O)NCC(=O)O)C(=O)O (centres undefined)
inactive: [1] > 100 µM | [2] 29.5 µM | [3] > 100 µM | [4] > 100 µM | [5] > 100 µM | [8] > 100 µM | [9] > 100 µM | [15] > 100 µM | [16] > 100 µM | [10] > 100 µM | [17] > 100 µM | [11] > 100 µM | [12] > 100 µM | [13] > 100 µM | [14] > 100 µM

COc1ccc(C2C(Cl)C(=O)N2NC(=O)c2ccccc2O)cc1OC (centres undefined)
inactive: [1] 53.2 µM | [2] 42.5 µM | [3] 50.2 µM | [4] > 100 µM | [7] > 100 µM | [8] 92.3 µM | [9] > 100 µM | [15] > 100 µM | [10] 65.8 µM | [17] 36.5 µM | [11] > 100 µM | [12] 92 µM | [13] 90.2 µM

CC(C)C(NC(=O)OC(C)(C)C)C(=O)N(C)C(Cc1ccccc1)C(=O)N(C)C(C(=O)N(C)C(C(=O)O)C(C)C)C(C)C (centres undefined) (Boc-V[NMeF][NMeV][NMeV]-OH; configuration not given here)
inactive: [1] > 100 µM | [2] > 100 µM | [3] > 100 µM | [4] > 100 µM | [6] > 100 µM | [7] > 100 µM | [8] > 100 µM | [9] > 100 µM | [16] > 100 µM | [10] > 100 µM | [17] > 100 µM | [11] > 100 µM | [14] > 100 µM
